Source: PubChem BioAssay AID2060612 (Molecular Pharmacology Branch, DTP, NCI, 2025)
Values joined by “and” are separate entries in the source; they are usually repeats but may differ in a detail not shown here. Identical values can stand only once.

Test system: 565232-114-T-J1-PDC complex spheroid viability
Test: Anticancer human tumor 565232-114-T-J1-PDC patient-derived bladder carcinoma cell line growth inhibition [CLK]
Settings: for viability, T/C: stronger effect = lower value; active means viability on the fitted dose curve at most 10% of control; inactive means the rest
Summary of the method: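 Patient-derived tumor cells grown as complex spheroids with HUVEC endothelial cells and mesenchymal stem cells, treated with drug combinations. Concentrations descend in half-log steps from near clinical Cmax, or from 10 microM if Cmax unknown.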

[1] = curve of first compound, second compound 0.0316 µM
[2] = curve of first compound, second compound 0.1 µM
[3] = curve of first compound, second compound 0.316 µM
[4] = curve of first compound, second compound 1 µM
[5] = curve of first compound, second compound 3.16 µM
[6] = curve of first compound, second compound 10 µM
[7] = second compound 0.0316 µM, first compound 0.0316 µM
[8] = second compound 0.0316 µM, first compound 0.1 µM
[9] = second compound 0.0316 µM, first compound 0.316 µM
[10] = second compound 0.0316 µM, first compound 1 µM
[11] = second compound 0.0316 µM, first compound 3.16 µM
[12] = second compound 0.0316 µM, first compound 10 µM
[13] = second compound 0.1 µM, first compound 0.0316 µM
[14] = second compound 0.1 µM, first compound 0.1 µM
[15] = second compound 0.1 µM, first compound 0.316 µM
[16] = second compound 0.1 µM, first compound 1 µM
[17] = second compound 0.1 µM, first compound 3.16 µM
[18] = second compound 0.1 µM, first compound 10 µM
[19] = second compound 0.316 µM, first compound 0.0316 µM
[20] = second compound 0.316 µM, first compound 0.1 µM
[21] = second compound 0.316 µM, first compound 0.316 µM
[22] = second compound 0.316 µM, first compound 1 µM
[23] = second compound 0.316 µM, first compound 3.16 µM
[24] = second compound 0.316 µM, first compound 10 µM
[25] = second compound 1 µM, first compound 0.0316 µM
[26] = second compound 1 µM, first compound 0.1 µM
[27] = second compound 1 µM, first compound 0.316 µM
[28] = second compound 1 µM, first compound 1 µM
[29] = second compound 1 µM, first compound 3.16 µM
[30] = second compound 1 µM, first compound 10 µM
[31] = second compound 3.16 µM, first compound 0.0316 µM
[32] = second compound 3.16 µM, first compound 0.1 µM
[33] = second compound 3.16 µM, first compound 0.316 µM
[34] = second compound 3.16 µM, first compound 1 µM
[35] = second compound 3.16 µM, first compound 3.16 µM
[36] = second compound 3.16 µM, first compound 10 µM
[37] = second compound 10 µM, first compound 0.0316 µM
[38] = second compound 10 µM, first compound 0.1 µM
[39] = second compound 10 µM, first compound 0.316 µM
[40] = second compound 10 µM, first compound 1 µM
[41] = second compound 10 µM, first compound 3.16 µM
[42] = second compound 10 µM, first compound 10 µM
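Further: spheroids exposed to compounds for 7 days before readout.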
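Wherever viability, T/C is given: 100% = DMSO vehicle wells with luminescence normalized to vehicle control.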

C=CC(=O)Nc1cc(Nc2nccc(-c3cn(C)c4ccccc34)n2)c(OC)cc1N(C)CCN(C)C + CNC(=O)c1ccc(Nc2nc(OC3CCCC3)c3c(-c4ccc5nc(C)oc5c4)c[nH]c3n2)c(OC)c1
inactive: viability, T/C (second compound 0.0316 µM, first compound 0.000949 µM) 84.3% | viability, T/C (second compound 0.0316 µM, first compound 0.003 µM) 92.5% | viability, T/C (second compound 0.0316 µM, first compound 0.00949 µM) 75.5% | viability, T/C (second compound 0.0316 µM, first compound 0.03 µM) 86.7% | viability, T/C (second compound 0.0316 µM, first compound 0.0949 µM) 87.6% | viability, T/C (second compound 0.0316 µM, first compound 0.3 µM) 86.1% | viability, T/C (second compound 0.1 µM, first compound 0.000949 µM) 49.8% | viability, T/C (second compound 0.1 µM, first compound 0.003 µM) 53.3% | viability, T/C (second compound 0.1 µM, first compound 0.00949 µM) 51.1% | viability, T/C (second compound 0.1 µM, first compound 0.03 µM) 49.2% | viability, T/C (second compound 0.1 µM, first compound 0.0949 µM) 51.6% | viability, T/C (second compound 0.1 µM, first compound 0.3 µM) 40.5% | viability, T/C (second compound 0.316 µM, first compound 0.000949 µM) 28.5% | viability, T/C (second compound 0.316 µM, first compound 0.003 µM) 31.7% | viability, T/C (second compound 0.316 µM, first compound 0.00949 µM) 28.5% | viability, T/C (second compound 0.316 µM, first compound 0.03 µM) 31.1% | viability, T/C (second compound 0.316 µM, first compound 0.0949 µM) 35.7% | viability, T/C (second compound 0.316 µM, first compound 0.3 µM) 26.2% | viability, T/C (second compound 1 µM, first compound 0.000949 µM) 22.4% | viability, T/C (second compound 1 µM, first compound 0.003 µM) 27.3% | viability, T/C (second compound 1 µM, first compound 0.00949 µM) 21.9% | viability, T/C (second compound 1 µM, first compound 0.03 µM) 26.4% | viability, T/C (second compound 1 µM, first compound 0.0949 µM) 18.1% | viability, T/C (second compound 1 µM, first compound 0.3 µM) 22% | viability, T/C (second compound 3.16 µM, first compound 0.000949 µM) 18.5% | viability, T/C (second compound 3.16 µM, first compound 0.003 µM) 20.7% | viability, T/C (second compound 3.16 µM, first compound 0.00949 µM) 17.6% | viability, T/C (second compound 3.16 µM, first compound 0.03 µM) 21.4% | viability, T/C (second compound 3.16 µM, first compound 0.0949 µM) 15.2% | viability, T/C (second compound 3.16 µM, first compound 0.3 µM) 14.3% | viability, T/C (second compound 10 µM, first compound 0.000949 µM) 19.9% | viability, T/C (second compound 10 µM, first compound 0.003 µM) 18.8% | viability, T/C (second compound 10 µM, first compound 0.00949 µM) 16.1% | viability, T/C (second compound 10 µM, first compound 0.03 µM) 18.2% | viability, T/C (second compound 10 µM, first compound 0.0949 µM) 14% | viability, T/C (second compound 10 µM, first compound 0.3 µM) 11.7%
< 0.000949 µM: IC50 [3] | IC50 [4] | IC50 [5] | IC50 [6]
0.105 µM: IC50 [2]
> 0.3 µM: IC50 [1]

COc1cccc2c1C(=O)c1c(O)c3c(c(O)c1C2=O)CC(O)(C(=O)CO)CC3OC1CC(N)C(O)C(C)O1 (stereo not drawn)
active: viability, T/C (compound 3.16 µM) 0.18% and 0.27% | viability, T/C (compound 10 µM) 0.14% and 0.26%
inactive: viability, T/C (compound 0.0316 µM) 93.4% and 109% | viability, T/C (compound 0.1 µM) 85.3% and 45.3% | viability, T/C (compound 0.316 µM) 78.4% and 15.7%
16.1% and 0.8%: viability, T/C (compound 1 µM)
0.533 µM and 0.0925 µM: IC50 (curve of compound)

O=c1[nH]cc(F)c(=O)[nH]1 + CN1CCN(c2cc(C(=O)Nc3cc4cc(-c5cnn(C)c5)ccc4cn3)ccn2)CC1
inactive: viability, T/C [7] 95.6% | viability, T/C [8] 77.4% | viability, T/C [9] 105% | viability, T/C [10] 106% | viability, T/C [11] 123% | viability, T/C [12] 113% | viability, T/C [13] 90.5% | viability, T/C [14] 83.1% | viability, T/C [15] 101% | viability, T/C [16] 130% | viability, T/C [17] 171% | viability, T/C [18] 120% | viability, T/C [19] 16.8% | viability, T/C [20] 18.7% | viability, T/C [21] 22.1% | viability, T/C [22] 22.7% | viability, T/C [23] 19.2% | viability, T/C [24] 17.1%
< 0.0316 µM: IC50 [3] | IC50 [4] | IC50 [5] | IC50 [6]
active: viability, T/C [25] 0.2% | viability, T/C [26] 0.42% | viability, T/C [27] 0.17% | viability, T/C [28] 0.16% | viability, T/C [29] 1.57% | viability, T/C [30] 0.22% | viability, T/C [31] 0.2% | viability, T/C [32] 0.14% | viability, T/C [33] 1.23% | viability, T/C [34] 0.14% | viability, T/C [35] 1.73% | viability, T/C [36] 1.38% | viability, T/C [37] 0.13% | viability, T/C [38] 0.29% | viability, T/C [39] 0.25% | viability, T/C [40] 0.15% | viability, T/C [41] 0.19% | viability, T/C [42] 1.01%
> 10 µM: IC50 [1] | IC50 [2]

CC1COCCN1c1cc(C2(S(C)(=N)=O)CC2)nc(-c2ccnc3[nH]ccc23)n1 (stereo not drawn) + CN1CCN(c2cc(C(=O)Nc3cc4cc(-c5cnn(C)c5)ccc4cn3)ccn2)CC1
inactive: viability, T/C [7] 89.7% | viability, T/C [8] 93.5% | viability, T/C [9] 98.5% | viability, T/C [10] 79.7% | viability, T/C [11] 101% | viability, T/C [12] 50.7% | viability, T/C [13] 95.7% | viability, T/C [14] 91.2% | viability, T/C [15] 80.7% | viability, T/C [16] 82.6% | viability, T/C [17] 98.8% | viability, T/C [18] 26.1% | viability, T/C [19] 16.3% | viability, T/C [20] 18.7% | viability, T/C [21] 14.9%
6.51 µM: IC50 [2]
< 0.0316 µM: IC50 [3] | IC50 [4] | IC50 [5] | IC50 [6]
> 10 µM: IC50 [1]
active: viability, T/C [22] 9.37% | viability, T/C [23] 3.94% | viability, T/C [24] 3.31% | viability, T/C [25] 0.17% | viability, T/C [26] 0.5% | viability, T/C [27] 0.18% | viability, T/C [28] 0.19% | viability, T/C [29] 1.38% | viability, T/C [30] 1.91% | viability, T/C [31] 0.25% | viability, T/C [32] 0.22% | viability, T/C [33] 3.08% | viability, T/C [34] 0.81% | viability, T/C [35] 0.72% | viability, T/C [36] 2.22% | viability, T/C [37] 1.75% | viability, T/C [38] 2.46% | viability, T/C [39] 1.22% | viability, T/C [40] 0.21% | viability, T/C [41] 0.21% | viability, T/C [42] 0.53%
